Source: patent publication US6861071B2, “Highly absorptive solid preparation” (Daiichi Pharmaceutical Co., Ltd., priority 2000, dated 2005)

Experiment: Promotion of dissolution of sitafloxacin by tartaric acid
Type: physicochemical
Excerpt: Accordingly, tartaric acid is preferably added in an amount of 0.1 to 1 mole, preferably 1/6 mole to 0.7 mole, more preferably 0.25 to 0.5 mole, especially about 0.5 mole to 1 mole of a quinolone compound, particularly sitafloxacin.

For `N[C@@H]1CN(c2c(F)cc3c(=O)c(C(=O)O)cn([C@@H]4C[C@@H]4F)c3c2Cl)CC12CC2` [sitafloxacin, (−)-7-[(7S)-7-amino-5-azaspirol[2.4]heptan-5-yl]-8-chloro-6-fluoro-1-[(1R,2S)-2-fluoro-1-cyclopropyl]-1,4-dihydro-4-oxo-3-quinolinecarboxylic acid], the “Effect for promoting dissolution of sitafloxacin” value (0.1 time molar amount (18.3 mg) of tartaric acid together with 500 mg of sitafloxacin (as an anhydrate)) was “marked improving effects” and the “Effect for promoting dissolution of sitafloxacin” value (0.5 time molar amount (92 mg) of tartaric acid in combination with 500 mg of sitafloxacin) was “effect becomes maximum”.
